Data: patent US20150274719A1, “AMINO-SUBSTITUTED IMIDAZO[1,2-A]PYRIDINECARBOXAMIDES AND THEIR USE” (BAYER PHARMA AKTIENGESELLSCHAFT, priority 2012, published 2015)

Molecular target: T1, recombinant guanylate cyclase reporter cell line (Rattus norvegicus, UniProt P19686+P20595)
T1 construct: expressed in transfected cells; host or cells: recombinant reporter cell line
T1 sequence (P19686 1-690): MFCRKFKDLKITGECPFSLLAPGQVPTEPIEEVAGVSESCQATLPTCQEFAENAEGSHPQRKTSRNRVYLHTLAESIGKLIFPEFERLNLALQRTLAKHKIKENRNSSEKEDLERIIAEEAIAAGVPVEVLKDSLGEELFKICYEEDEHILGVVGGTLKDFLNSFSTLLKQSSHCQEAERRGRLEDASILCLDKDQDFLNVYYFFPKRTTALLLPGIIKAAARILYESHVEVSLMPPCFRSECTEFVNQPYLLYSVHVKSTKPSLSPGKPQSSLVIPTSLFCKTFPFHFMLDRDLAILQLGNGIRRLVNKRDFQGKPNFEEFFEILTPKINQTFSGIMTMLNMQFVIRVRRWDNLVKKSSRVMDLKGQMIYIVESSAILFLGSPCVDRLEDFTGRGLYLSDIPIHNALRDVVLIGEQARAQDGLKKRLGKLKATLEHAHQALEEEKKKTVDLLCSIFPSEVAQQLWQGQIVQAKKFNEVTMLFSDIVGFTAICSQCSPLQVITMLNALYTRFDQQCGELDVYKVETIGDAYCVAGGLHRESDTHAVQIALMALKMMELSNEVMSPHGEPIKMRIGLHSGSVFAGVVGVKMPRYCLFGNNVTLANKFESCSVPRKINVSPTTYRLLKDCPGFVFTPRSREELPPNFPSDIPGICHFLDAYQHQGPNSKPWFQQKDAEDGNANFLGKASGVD
T1 sequence (P20595 1-619): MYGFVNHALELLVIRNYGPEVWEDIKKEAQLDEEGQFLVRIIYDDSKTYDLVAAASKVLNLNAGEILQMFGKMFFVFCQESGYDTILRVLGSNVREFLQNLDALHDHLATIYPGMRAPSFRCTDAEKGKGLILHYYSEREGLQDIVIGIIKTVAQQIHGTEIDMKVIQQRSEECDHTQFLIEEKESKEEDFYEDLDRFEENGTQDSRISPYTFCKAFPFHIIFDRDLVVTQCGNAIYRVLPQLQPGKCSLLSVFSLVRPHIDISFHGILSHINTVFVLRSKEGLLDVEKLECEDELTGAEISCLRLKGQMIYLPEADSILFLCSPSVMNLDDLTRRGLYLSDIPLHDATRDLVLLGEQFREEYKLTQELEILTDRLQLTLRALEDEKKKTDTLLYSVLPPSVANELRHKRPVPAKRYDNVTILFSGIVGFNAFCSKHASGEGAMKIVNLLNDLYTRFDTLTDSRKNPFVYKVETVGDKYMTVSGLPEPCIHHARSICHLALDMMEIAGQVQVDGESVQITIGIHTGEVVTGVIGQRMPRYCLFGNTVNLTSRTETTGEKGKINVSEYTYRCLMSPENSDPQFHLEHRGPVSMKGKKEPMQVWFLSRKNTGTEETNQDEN
Assay: Action on recombinant guanylate cyclase reporter cell line
Type: cell-based
Conditions: in some cases mean values from individual determinations
Summary of the method: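 MEC values, meaning the lowest concentration producing a detectable response, were taken from a recombinant cyclase reporter cell assay. Where repeated, individual determinations were averaged.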

| MEC (minimal effective concentration) [µM] | Compound |
| --- | --- |
| 1.00 | CCCC[C@H](CN(CC)CC)NC(=O)c1c(C)nc2c(OCc3c(F)cccc3F)cccn12 [Example 69, ent-8-[(2R)-1-(diethylamino)hexan-2-yl]-8-[(2,6-difluorobenzyl)oxy]-2-methylimidazo[1,2-a]-pyridine-3-carboxamide] |
| 1.00 | CCCC[C@H](CNCCOC)NC(=O)c1c(C)nc2c(OCc3c(F)cccc3F)cccn12 [Example 70, ent-8-[(2,6-difluorobenzyl)oxy]-N-{(2R)-1-[(2-methoxyethyl)amino]hexan-2-yl}-2-methylimidazo[1,2-a]pyridine-3-carboxamide] |
| 0.30 | Cc1nc2c(OCc3c(F)cccc3F)cccn2c1C(=O)NCC(C)(C)N [Example 72, N-(2-Amino-2-methylpropyl)-8-[(2,6-difluorobenzyl)oxy]-2-methylimidazo[1,2-a]pyridine-3-carboxamide] |
| 1.00 | Cc1nc2c(OCc3c(F)cccc3F)cccn2c1C(=O)NCCNc1ccc(F)cc1 [Example 79, 8-[(2,6-difluorobenzyl)oxy]-N-{2-[(4-fluoro-phenyl)amino]ethyl}-2-methylimidazo[1,2-a]-pyridine-3-carboxamide] |
| 0.20 | Cc1nc2c(OCc3c(F)cccc3F)cccn2c1C(=O)NC1CC(C)(C)NC(C)(C)C1 [Example 82, 8-[(2,6-Difluorobenzyl)oxy]-2-methyl-N-(2,2,6,6-tetramethylpiperidin-4-yl)imidazo[1,2-a]-pyridine-3-carboxamide] |
| 0.10 | Cc1nc2c(OCc3c(F)cccc3F)cccn2c1C(=O)NC1CC(C)(C)N(C)C(C)(C)C1 [Example 83, 8-[(2,6-difluorobenzyl)oxy]-2-methyl-N-(1,2,2,6,6-pentamethylpiperidin-4-yl)imidazo[1,2-a]pyridine-3-carboxamide] |
| 2.00 | Cc1nc2c(OCc3c(F)cccc3F)cccn2c1C(=O)NCCN(C)C [Example 86, 8-[(2,6-difluorobenzyl)oxy]-N-[2-(dimethyl-amino)ethyl]-2-methylimidazo[1,2-a]pyridine-3-carboxamide] |
| 1.00 | Cc1nc2c(OCc3c(F)cccc3F)cccn2c1C(=O)NCCCN(C)C [Example 87, 8-[(2,6-difluorobenzyl)oxy]-N-[3-(dimethyl-amino)propyl]-2-methylimidazo[1,2-a]-pyridine-3-carboxamide] |
| 1.00 | Cc1nc2c(OCc3c(F)cccc3F)cccn2c1C(=O)NCCN(C(C)C)C(C)C [Example 88, 8-[(2,6-difluorobenzyl)oxy]-N-[2-(diisopropyl-amino)ethyl]-2-methylimidazo[1,2-a]pyridine-3-carboxamide] |
| 0.65 | Cc1nc2c(OCc3c(F)cccc3F)cccn2c1C(=O)NCCN1CCOCC1 [Example 89, 8-[(2,6-difluorobenzyl)oxy]-2-methyl-N-[2-(morpholin-4-yl)ethyl]imidazo[1,2-a]pyridine-3-carboxamide] |
| 0.30 | Cc1cc(OCc2c(F)cccc2F)c2nc(C)c(C(=O)NCC(C)(C)NCC(F)(F)F)n2c1 [Example 94, 8-[(2,6-Difluorobenzyl)oxy]-2,6-dimethyl-N-{2-methyl-2-[(2,2,2-trifluoroethyl)amino]propyl}-imidazo[1,2-a]pyridine-3-carboxamide] |
| 0.10 | [2H]C([2H])(Oc1cccn2c(C(=O)NC(CN)c3ccc(F)c(F)c3)c(C)nc12)c1c(F)cccc1F (stereo not drawn) [Example 97, ent-N-[2-Amino-1-(3,4-difluorophenyl)ethyl]-8-{[(2,6-difluorophenyl)(^2H2)methyl]oxy}-2-methylimidazo[1,2-a]pyridine-3-carboxamide] |
| 1.00 | Cc1nc2c(OCc3ccccc3F)cccn2c1C(=O)NC(CN)c1ccc(F)c(F)c1 (stereo not drawn) [Example 98, ent-N-[2-Amino-1-(3,4-difluorophenyl)ethyl]-8-[(2-fluorobenzyl)oxy]-2-methylimidazo[1,2-a]-pyridine-3-carboxamide] |
| 1.00 | Cc1nc2c(OCc3cccc(F)c3F)cccn2c1C(=O)NC(CN)c1ccc(F)c(F)c1 (centres unmarked) [Example 99] |
| 0.30 | Cc1nc2c(OCc3c(F)ccc(F)c3F)cccn2c1C(=O)NC(CN)c1ccc(F)c(F)c1 (stereo not drawn) [Example 100, ent-N-[2-amino-1-(3,4-difluorophenyl)ethyl]-2-methyl-8-[(2,3,6-trifluorobenzyl)oxy]imidazo[1,2-a]pyridine-3-carboxamide] |
| 1.00 | Cc1nc2c(OCc3c(F)cc(F)cc3F)cccn2c1C(=O)NC(CN)c1ccc(F)c(F)c1 (stereo not drawn) [Example 101, ent-N-[2-amino-1-(3,,4-difluorophenyl)ethyl]-2-methyl-8-[(2,4,6-trifluorobenzyl)oxy]imidazo[1,2-a]pyridine-3-carboxamide] |
| 1.00 | Cc1nc2c(OCc3c(F)cccc3Cl)cccn2c1C(=O)NC(CN)c1ccc(F)c(F)c1 (stereo not drawn) [Example 102, ent-N-[2-amino-1-(3,4-difluorophenyl)ethyl]-8-[(2-chloro-6-fluorobenzyl)oxy]-2-methylimidazo[1,2-a]pyridine-3-carboxamide] |
| 3.00 | Cc1nc2c(OCc3c(F)cccc3F)cccn2c1C(=O)NCC(C)(C)CN [Example 103, N-(3-amino-2,2-dimethylpropyl)-8-[(2,6-difluorobenzyl)oxy]-2-methylimidazo[1,2-a]-pyridine-3-carboxamide] |
| 0.30 | Cc1nc2c(OCc3c(F)cccc3F)cc(Cl)cn2c1C(=O)NCCC(C)(C)N [Example 104, N-(3-Amino-3-methylbutyl)-6-chloro-8-[(2,6-difluorobenzyl)oxy]-2-methylimidazo[1,2-a]-pyridine-3-carboxamide] |
| 0.30 | Cc1cc(OCc2c(F)cccc2F)c2nc(C)c(C(=O)NCCC(C)(C)N)n2c1 [Example 114, N-(3-amino-3-methylbutyl)-8-[(2,6-difluorobenzyl)oxy]-2,6-dimethylimidazo[1,2-a]-pyridine-3-carboxamide] |
| 1.00 | Cc1cc(OCc2c(F)cccc2F)c2nc(C)c(C(=O)NC[C@@H]3CCCN3)n2c1 [Example 115, 8-[(2,6-difluorobenzyl)oxy]-2,6-dimethyl-N-[(2S)-pyrrolidin-2-ylmethyl]imidazo[1,2-a]-pyridine-3-carboxamide] |
| 3.00 | Cc1cc(OCc2c(F)cccc2F)c2nc(C)c(C(=O)NC[C@H]3CCCN3)n2c1 [Example 116, 8-[(2,6-difluorobenzyl)oxy]-2,6-dimethyl-N-[(2R)-pyrrolidin-2-ylmethyl]imidazo[1,2-a]-pyridine-3-carboxamide] |

| Compound | MEC (minimal effective concentration) [µM] |
| --- | --- |
| CCN1C2CCCC1CC(NC(=O)c1c(C)nc3c(OCc4c(F)cccc4F)cccn13)C2 (centres unmarked) [Example 71, 8-[(2,6-Difluorobenzyl)oxy]-N-(9-ethyl-9-azabicyclo[3.3.1]non-3-yl)-2-methylimidazo[1,2-a]-pyridine-3-carboxamide] | 0.30 |
| Cc1nc2c(OCc3c(F)cccc3F)cccn2c1C(=O)NC1CC2CCCC(C1)N2C (centres unmarked) [Example 90, 8-[(2,6-difluorobenzyl)oxy]-2-methyl-N-(9-methyl-9-azabicyclo[3.3.1]non-3-yl)imidazo[1,2-a]pyridine-3-carboxamide] | 0.10 |
| Cc1nc2c(OCc3c(F)cccc3F)cccn2c1C(=O)NC1CC2CCC(C1)N2C (centres unmarked) [Example 91, 8-[(2,6-difluorobenzyl)oxy]-2-methyl-N-(8-methyl-8-azabicyclo[3.2.1]oct-3-yl)imidazo[1,2-a]pyridine-3-carboxamide] | 1.00 |
| Cc1nc2c(OCc3c(F)cccc3F)cccn2c1C(=O)NC1CN2CCC1CC2 (centres unmarked) [Example 92, N-(1-azabicyclo[2.2.2]oct-3-yl)-8-[(2,6-difluorobenzyl)oxy]-2-methylimidazo[1,2-a]-pyridine-3-carboxamide] | 0.30 |
